Paper PMC5477519, “Leukocyte integrin Mac-1 regulates thrombosis via interaction with platelet GPIbα” (Nature Communications, 2017)

How the values were obtained:
[1] = target: T1, αMI-domain double mutant of integrin Mac-1 (αMβ2, CD11b/CD18) (Homo sapiens, UniProt P11215, R232A/T229A); test: SPR (Biacore […], ~[…] RU, steady-state affinity); low-level binding, no consistent interaction at ~[…] RU
T1 construct: gene ITGAM; αMI-domain, human mutant

[2] = target: T2, αMI-domain of integrin Mac-1 (αMβ2, CD11b/CD18) (Homo sapiens, UniProt P11215); test: SPR (Biacore […], CM5 chip, steady-state affinity); supported by inhibition of GPIbα binding to αMI-domain (IC50 […])
T2 construct: gene ITGAM; αMI-domain, human WT
T2 sequence (P11215 150-328 limits assumed): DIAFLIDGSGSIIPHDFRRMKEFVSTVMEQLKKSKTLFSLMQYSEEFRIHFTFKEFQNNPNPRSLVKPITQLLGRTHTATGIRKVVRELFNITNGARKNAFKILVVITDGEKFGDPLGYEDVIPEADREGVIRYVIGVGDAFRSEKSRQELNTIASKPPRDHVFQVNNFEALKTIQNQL

T1 sequence (P11215 150-328 T229A/R232A limits assumed): as the sequence (P11215 150-328 limits assumed) above, with T80A, R83A counted along it

## N[C@H]1C(O)O[C@H](CO)[C@@H](O)[C@@H]1O (some centres unmarked) [glucosamine]
[1]
  Kd: ~244 µM
[2]
  Kd: ~100 µM
